Among the data in patent US20240270715A1, “INHIBITORS OF TRANSGLUTAMINASES” (ZEDIRA GMBH, priority 2021, published 2024) are IC50, Papp and logD values, retold here.

Some results are limits rather than exact numbers.

Series [1] concerns the target T1, recombinant human transglutaminase 2 (Homo sapiens, UniProt P21980).
T1 sequence (P21980 1-687): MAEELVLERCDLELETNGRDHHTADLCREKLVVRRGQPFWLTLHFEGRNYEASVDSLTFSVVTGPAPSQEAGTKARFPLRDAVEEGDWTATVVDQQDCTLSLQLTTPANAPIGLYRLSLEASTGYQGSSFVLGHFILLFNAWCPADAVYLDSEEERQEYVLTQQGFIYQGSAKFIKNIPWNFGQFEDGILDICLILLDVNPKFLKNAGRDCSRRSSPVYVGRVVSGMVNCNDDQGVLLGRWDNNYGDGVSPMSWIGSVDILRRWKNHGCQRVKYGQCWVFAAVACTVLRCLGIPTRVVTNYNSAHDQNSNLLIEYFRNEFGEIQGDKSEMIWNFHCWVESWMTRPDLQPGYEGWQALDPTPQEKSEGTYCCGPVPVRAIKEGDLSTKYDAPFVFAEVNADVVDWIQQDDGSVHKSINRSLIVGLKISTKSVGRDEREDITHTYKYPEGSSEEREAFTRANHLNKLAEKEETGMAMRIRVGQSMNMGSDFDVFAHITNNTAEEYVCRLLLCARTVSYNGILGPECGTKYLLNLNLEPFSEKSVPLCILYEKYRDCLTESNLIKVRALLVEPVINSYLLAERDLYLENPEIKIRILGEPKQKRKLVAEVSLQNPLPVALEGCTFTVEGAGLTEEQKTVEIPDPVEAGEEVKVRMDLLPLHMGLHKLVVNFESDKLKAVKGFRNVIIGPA
The experiment in a line: Transglutaminase assay: incorporation of dansylcadaverine into dimethylcasein (DCC-assay). The class given is biochemical. To be noted: recombinant human TG2 10 nM, dansylcadaverine/dimethylcasein; read-out: IC50 TG2. The gist of the method: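 Recombinant human TG2 (10 nM final) incorporates dansylcadaverine (16.7 μM) into N,N-dimethylcasein (4 μM) in Tris-HCl buffer, pH 8.0, with 10 mM CaCl2 and 10 mM glutathione. Fluorescence (λex 330, λem 500 nm) followed 30 min. The slope between 20–30 min gives activity versus DMSO control, and IC50 comes from the concentration–activity plot.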

Series [2] in a line: Caco-2 permeability assay (CacoReady kit). The class given is in vitro ADME. Conditions: human. The gist of the method:
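Apparent permeability coefficients (Papp) were measured across Caco-2 cell barriers using a ready-to-use kit run per the supplier's protocol. Values serve as a predictor of oral/intestinal bioavailability.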

The nature of series [3]: Log D by shake flask method (octanol / PBS pH 7.4, HPLC). To be noted: octanol / PBS pH 7.4, shake flask; read-out: logD. The class given is physicochemical. The gist of the method:
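Shake-flask partitioning of compound between octanol and PBS at pH 7.4, with phase concentrations quantified by HPLC. The value reported is Log D.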

As to `CCNC(=O)C(=O)CC[C@H](NC(=O)C1CN2CCC1CC2)C(=O)Nc1cccn(CC(=O)NC2(C#N)C3CC4CC(C3)CC2C4)c1=O` (stereo partly drawn) [Compound I-63, (S)-N1-ethyl-N6-(1-(2-(2-carbonitrileadamantane-2-amino)-2-oxoethyl)-2-oxo-1,2-dihydropyridin-3-yl)-2-oxo-5-((3S,4R)-quinuclidine-3-carboxamido)hexanediamide], in series [1], the IC50 is 150 to 600 nM. Besides, in series [2], the Papp is under 1 ×10⁻⁶ cm/s. For the same compound, the logD in series [3] is under 1.

Turning to `CCNC(=O)C(=O)CC[C@H](NC(=O)c1cc(C(=O)OC)cc([N+](=O)[O-])c1)C(=O)Nc1cccn(CC(=O)NC2(C(=O)OC)C3CC4CC(C3)CC2C4)c1=O` (stereo partly drawn) [Compound I-64, (S)-methyl 3-(6-(ethylamino)-1-(1-(2-(methyl 2-aminoadamantane-2-carboxylate)-2-oxoethyl)-2-oxo-1,2-dihydropyridin-3-ylamino)-1,5,6-trioxohexan-2-ylcarbamoyl)-5-nitrobenzoate], the IC50 in series [1] was under 150 nM. Also, in series [2], the Papp lay within 1 to 10 ×10⁻⁶ cm/s. Moreover, in series [3], the logD was 1 to 3.

As to `CCNC(=O)C(=O)CC[C@H](NC(=O)c1cncc([N+](=O)[O-])c1)C(=O)Nc1cccn(CC(=O)NCC23CC4CC(CC(C4)C2)C3)c1=O` [Compound I-65, (S)-N1-(1-(2-(1-adamantylmethylamino)-2-oxoethyl)-2-oxo-1,2-dihydropyridin-3-yl)-N6-ethyl-2-(5-nitronicotinamido)-5-oxohexanediamide], the 50% inhibitory concentration (IC50) in series [1] was under 150 nM. Also, in series [2], the Papp fell in the range of 1 to 10 ×10⁻⁶ cm/s. The logD in series [3] lay in the range of 1 to 3.

Take `CCNC(=O)C(=O)CC[C@H](NC(=O)c1cncc(C(=O)O)c1)C(=O)Nc1cccn(CC(=O)NC(C)C23CC4CC(CC(C4)C2)C3)c1=O` (stereo partly drawn) [Compound I-66]: the half-maximal inhibitory concentration (IC50) in series [1] lay in the range of 150 to 600 nM. This compound had an apparent permeability (Papp) in series [2] of under 1 ×10⁻⁶ cm/s. In addition, the log distribution coefficient (logD) in series [3] was 3 to 5.

Consider `CCNC(=O)C(=O)CC[C@H](NC(=O)c1c(C)nc2sccn12)C(=O)Nc1cccn(CC(=O)N(C)C2C3CC4CC(C3)CC2C4)c1=O` (stereo partly drawn) [Compound I-67, (S)-N1-ethyl-N6-(1-(2-(2-adamantyl(methyl)amino)-2-oxoethyl)-2-oxo-1,2-dihydropyridin-3-yl)-5-(6-methylimidazo[2,1-b]thiazole-5-carboxamido)-2-oxohexanediamide], for which, in series [1], the half-maximal inhibitory concentration (IC50) lay in the range of 600 to 3500 nM. The compound further yielded a Papp in series [2] of under 1 ×10⁻⁶ cm/s. Also, in series [3], the logD lay within 3 to 5.

Take `CCNC(=O)C(=O)CC[C@H](NC(=O)c1oc2ccccc2c1C)C(=O)Nc1cccn(CC(=O)N[C@@H]2C[C@@H]3CC[C@H]2C3)c1=O` [Compound I-68, (S)-N1-(1-(2-((1S,2R,4R)-bicyclo[2.2.1]heptan-2-ylamino)-2-oxoethyl)-2-oxo-1,2-dihydropyridin-3-yl)-N6-ethyl-2-(3-methylbenzofuran-2-carboxamido)-5-oxohexanediamide]: the half-maximal inhibitory concentration (IC50) in series [1] was under 150 nM. For the same compound, in series [2], the Papp lay in the range of 1 to 10 ×10⁻⁶ cm/s. Also, the log distribution coefficient (logD) in series [3] lay within 1 to 3.

On to `CCNC(=O)C(=O)CC[C@H](NC(=O)c1oc2ccccc2c1C)C(=O)Nc1cccn(CC(=O)N[C@H]2C[C@H]3CC[C@]2(C)C3(C)C)c1=O` [Compound I-69, (S)-N1-ethyl-5-(3-methylbenzofuran-2-carboxamido)-2-oxo-N6-(2-oxo-1-(2-oxo-2-((1R,2S,4R)-1,7,7-trimethylbicyclo[2.2.1]heptan-2-ylamino)ethyl)-1,2-dihydropyridin-3-yl)hexanediamide], for which the half-maximal inhibitory concentration (IC50) in series [1] is 150 to 600 nM. In series [2], this compound displayed a Papp of 1 to 10 ×10⁻⁶ cm/s. In addition, the logD in series [3] is 3 to 5.

Turning to `CCNC(=O)C(=O)CC[C@H](NC(=O)c1oc2ccccc2c1C)C(=O)Nc1cccn(CC(=O)N[C@@H]2C[C@H]3CC[C@@H]2C3)c1=O` [Compound I-70, (S)-N1-(1-(2-((1R,2R,4S)-bicyclo[2.2.1]heptan-2-ylamino)-2-oxoethyl)-2-oxo-1,2-dihydropyridin-3-yl)-N6-ethyl-2-(3-methylbenzofuran-2-carboxamido)-5-oxohexanediamide], the IC50 in series [1] was under 150 nM. For the same compound, the Papp in series [2] is 1 to 10 ×10⁻⁶ cm/s. In addition, the log distribution coefficient (logD) in series [3] was in the range of 1 to 3.

For `CCNC(=O)C(=O)CC[C@H](NC(=O)c1ccncc1)C(=O)Nc1cccn(CC(=O)NC23CCC(CC2)C3)c1=O` [Compound I-71, (S)-N1-(1-(2-((1s,4R)-bicyclo[2.2.1]heptan-1-ylamino)-2-oxoethyl)-2-oxo-1,2-dihydropyridin-3-yl)-N6-ethyl-2-(isonicotinamido)-5-oxohexanediamide], the IC50 in series [1] is 150 to 600 nM. In addition, the Papp in series [2] was under 1 ×10⁻⁶ cm/s. The log distribution coefficient (logD) in series [3] is under 1.

For `CCNC(=O)C(=O)CC[C@H](NC(=O)c1ccnnc1)C(=O)Nc1cccn(CC(=O)NC2C3CCC2CC3)c1=O` (stereo partly drawn) [Compound I-72, (S)-N1-(1-(2-(bicyclo[2.2.1]heptan-7-ylamino)-2-oxoethyl)-2-oxo-1,2-dihydropyridin-3-yl)-N6-ethyl-5-oxo-2-(pyridazine-4-carboxamido)hexanediamide], the IC50 in series [1] was 150 to 600 nM. Besides, the apparent permeability (Papp) in series [2] is under 1 ×10⁻⁶ cm/s. Moreover, the logD in series [3] is under 1.

Turning to `CCNC(=O)C(=O)CC[C@H](NC(=O)c1cccnn1)C(=O)Nc1cccn(CC(=O)N[C@@H]2C[C@@H]3C=C[C@H]2C3)c1=O` [Compound I-73, (S)-N1-(1-(2-((1R,2R,4R)-bicyclo[2.2.1]hept-5-en-2-ylamino)-2-oxoethyl)-2-oxo-1,2-dihydropyridin-3-yl)-N6-ethyl-5-oxo-2-(pyridazine-3-carboxamido)hexanediamide], the 50% inhibitory concentration (IC50) in series [1] is 150 to 600 nM. This compound also showed an apparent permeability (Papp) in series [2] of under 1 ×10⁻⁶ cm/s. For the same compound, in series [3], the log distribution coefficient (logD) is under 1.

As for `CCNC(=O)C(=O)CC[C@H](NC(=O)c1cn[nH]n1)C(=O)Nc1cccn(CC(=O)NC2CC3CCC2CC3)c1=O` (stereo partly drawn) [Compound I-74, (2S)-N1-(1-(2-(bicyclo[2.2.2]octan-2-ylamino)-2-oxoethyl)-2-oxo-1,2-dihydropyridin-3-yl)-N6-ethyl-5-oxo-2-(2H-1,2,3-triazole-4-carboxamido)hexanediamide], the 50% inhibitory concentration (IC50) in series [1] lay in the range of 150 to 600 nM. This compound also gave an apparent permeability coefficient (Papp) in series [2] of under 1 ×10⁻⁶ cm/s. In series [3], the logD was under 1.

As for `CCNC(=O)C(=O)CC[C@H](NC(=O)c1cn(C)nn1)C(=O)Nc1cccn(CC(=O)N[C@@H]2C[C@H]3CC[C@]2(C)C3(C)C)c1=O` [Compound I-75, (S)-N1-ethyl-5-(1-methyl-1H-1,2,3-triazole-4-carboxamido)-2-oxo-N6-(2-oxo-1-(2-oxo-2-((1R,2R,4R)-1,7,7-trimethylbicyclo[2.2.1]heptan-2-ylamino)ethyl)-1,2-dihydropyridin-3-yl)hexanediamide], the IC50 in series [1] was in the range of 150 to 600 nM. This compound also displayed an apparent permeability (Papp) in series [2] of 1 to 10 ×10⁻⁶ cm/s. In series [3], the log distribution coefficient (logD) is under 1.

Turning to `CCNC(=O)C(=O)CC[C@H](NC(=O)c1ncn(C)n1)C(=O)Nc1cccn(CC(=O)N[C@@H]2C[C@@H]3C[C@H]([C@H]2C)C3(C)C)c1=O` [Compound I-76, (S)-N1-ethyl-5-(1-methyl-1H-1,2,4-triazole-3-carboxamido)-2-oxo-N6-(2-oxo-1-(2-oxo-2-((1R,2R,3R,5S)-2,6,6-trimethylbicyclo[3.1.1]heptan-3-ylamino)ethyl)-1,2-dihydropyridin-3-yl)hexanediamide], the half-maximal inhibitory concentration (IC50) in series [1] was 150 to 600 nM. In series [2], this compound gave an apparent permeability (Papp) of under 1 ×10⁻⁶ cm/s. Besides, the log distribution coefficient (logD) in series [3] lay within 1 to 3.

As to `CCNC(=O)C(=O)CC[C@H](NC(=O)c1coc2ccccc12)C(=O)Nc1cccn(CC(=O)N[C@H]2C[C@H]3C[C@@H]([C@@H]2C)C3(C)C)c1=O` [Compound I-77, (S)-2-(benzofuran-3-carboxamido)-N6-ethyl-5-oxo-N1-(2-oxo-1-(2-oxo-2-((1S,2S,3S,5R)-2,6,6-trimethylbicyclo[3.1.1]heptan-3-ylamino)ethyl)-1,2-dihydropyridin-3-yl)hexanediamide], in series [1], the concentration for half-maximal inhibition (IC50) fell in the range of 150 to 600 nM. The Papp in series [2] lay in the range of 1 to 10 ×10⁻⁶ cm/s. The pH-dependent lipophilicity (logD) in series [3] was 3 to 5.

`CCNC(=O)C(=O)CC[C@H](NC(=O)c1csc2ccccc12)C(=O)Nc1cccn(CC(=O)NC23CCCC4CC(CCC42)C3)c1=O` (stereo partly drawn) [Compound I-78, (S)-2-(benzo[b]thiophene-3-carboxamido)-N6-ethyl-N1-(1-(2-(4-homoisotwistane-3-amino)-2-oxoethyl)-2-oxo-1,2-dihydropyridin-3-yl)-5-oxohexanediamide]: the 50% inhibitory concentration (IC50) in series [1] lay in the range of 150 to 600 nM. In series [2], this compound gave an apparent permeability coefficient (Papp) of 1 to 10 ×10⁻⁶ cm/s. For the same compound, the logD in series [3] was 3 to 5.

For the compound `CCNC(=O)C(=O)CC[C@H](NC(=O)c1cnn(C)c1)C(=O)Nc1cccn(CC(=O)NC23CC4CC5C2C[C@@H]2C[C@H]5C(C4)[C@H]3C2)c1=O` [Compound I-79, (S)-N1-ethyl-N6-(1-(2-(diamantane-1-amino)-2-oxoethyl)-2-oxo-1,2-dihydropyridin-3-yl)-5-(1-methyl-1H-pyrazole-4-carboxamido)-2-oxohexanediamide], the IC50 in series [1] fell in the range of 150 to 600 nM. The Papp in series [2] is under 1 ×10⁻⁶ cm/s. The logD in series [3] lay in the range of 1 to 3.
